A short description of data set [1]: Solubility of phenolic compounds and caffeine in water without hydrotropes. The settings on record: for solubility: in water. An excerpt:
Baicalin, a component of Chinese medicinal herb Huang-chin, is a flavone, a type of flavonoid.

Data set [2] in a line: Solubility in water with hydrotropes (nicotinamide, caffeine). The settings on record: 5% nicotinamide and 5% caffeine.
Data set [3] in a line: Oxygen Radical Absorbance Capacity (ORAC) assay. In kind it is biochemical. The note with it: individual values, known activity of each antioxidant.
Source text: The ORAC assay measures the oxidative degradation of the fluorescent probe (fluorescein) after being mixed with free radical generators such as azo-initiator compounds (2,2′-Azobis(2-amidinopropane)dihydrochloride, AAPH). Azo-initiators are considered to produce the peroxyl radical by heating, which damages the fluorescent molecule, resulting in the loss of fluorescence. Antioxidants are considered to protect the fluorescent molecule from the oxidative degeneration. By quantifying the decay of fluorescence using a fluorometer, the degree of protection is determined comparing with a standard control antioxidant Trolox. The result is expressed in μmol equivalent of Trolox per gram of sample (i.e., μmolTE/g).
To test samples by using ORAC, compounds are dissolved into water-based NaH2PO4 buffer.
Data set [4] can be described thus: Solubility of baicalin in organic solvent PEG-4. In kind it is physicochemical. An excerpt:
Crystallization or precipitation occurs after mixing the glycol phase and water phase.

The nature of data set [5]: HORAC assay (hydroxyl radical averting capacity). Format: biochemical. The settings on record: individual values, known activity of each antioxidant.
Source text: The Varioskan Flash is employed for the quantification of the capacity of an antioxidant to avert the hydroxyl radical. The hydroxyl radical, generated from hydrogen peroxide and Cobalt (II) fluoride, will quench a fluorescent probe by a hydrogen atom transfer reaction. In the presence of an antioxidant, however, the molecule will chelate the Co(II), preventing the generation of the hydroxyl radical and initially block or prevent the quenching of the probe, causing a delay in the fluorescence decay profile. The area under the fluorescence decay curves for samples with and without the presence of an antioxidant molecule are compared to that of a standard reference material and the hydroxyl radical averting capacity is determined
By quantifying the decay of fluorescence using a fluorometer, the degree of protection is determined by comparison with a standard control antioxidant Gallic Acid (standard reference material). The result is expressed in μmol equivalent of Gallic Acid per gram of sample (i.e., μmolGAE/g).
To test samples by using HORAC, compounds are dissolved into water-based NaH2PO4 buffer.
A short description of data set [6]: pH stability of baicalin in water. Format: physicochemical.

Like-named read-outs stand apart in the source and are kept apart here. A value given as a limit tells only on which side of the number the result lay.

As to `O=C1c2c(O)cc(O)cc2O[C@H](c2ccc(O)c(O)c2)[C@H]1O` [Taxifolin], in data set [1] (without hydrotropes), the “Solubility in water without hydrotropes” value is on record as <0.1 % (w/w). Moreover, the “Solubility in water with hydrotropes” value in data set [2] is listed as >1 % (w/w).
For `O=c1oc2c(O)c(O)cc3c(=O)oc4c(O)c(O)cc1c4c23` [Ellagic acid], the “Solubility in water without hydrotropes” value in data set [1] is given as <0.001 % (w/w).
In data set [3], tocopherol [VIT. E (tocopherol)] displayed an ORAC of 1000 μmolTE/g.
For `Oc1ccc(C=Cc2cc(O)cc(O)c2)cc1` [Resveratrol], the “Solubility in water without hydrotropes” value in data set [1] is given as <0.005 % (w/w).
In the case of `COc1ccc([C@@H]2CC(=O)c3c(O)cc(O[C@@H]4O[C@H](CO)[C@@H](O)[C@H](O)[C@H]4O[C@@H]4O[C@@H](C)[C@H](O)[C@@H](O)[C@H]4O)cc3O2)cc1O` [Neohesperidin], the “Solubility in water without hydrotropes” value in data set [1] is given as <0.05 % (w/w).
On to `O=C(O)[C@H]1O[C@@H](Oc2cc3oc(-c4ccccc4)cc(=O)c3c(O)c2O)[C@H](O)[C@@H](O)[C@@H]1O` [Baicalin], for which the “baicalin dissolved by PEG-4” value in data set [4] is recorded as 3%. In addition, the HORAC in data set [5] came to 2592 μmolGAE/g. The same compound registered a solubility in water in data set [1] (at its natural pH ~4.5) of less than 0.01%. Moreover, the solubility in data set [1] (pH 3) was 0.0016%; in data set [1] (pH 3.5), 0.0021%; in data set [1] (pH 4), 0.0040%; in data set [1] (pH 4.5), 0.0084%; in data set [1] (pH 5), 0.035%. This compound also came in with a water solubility in data set [1] (no hydrotrope) of less than 0.01%. In addition, the “Solubility in water without hydrotropes” value in data set [1] (without hydrotropes) is <0.01 % (w/w). Further, the “pH at which degradation happens” value in data set [6] was more than 5. Moreover, in data set [3], the ORAC came to 4759 μmolTE/g.

The record behind these values is US9669242B2, “Compositions containing at least two phenolic compounds, a lipid-soluble antioxidant and at least one hydrotrope for cosmetic use” (L'OREAL, priority 2013, dated 2017).
